Reference: paper PMC7604625, “Glycolysis regulates Hedgehog signalling via the plasma membrane potential” (The EMBO Journal, 2020)

Key:
[1] = tested on: PAC-NAE uptake into wing discs; assay: Lipophorin-mediated PAC-NAE uptake in wing discs; type: cell-based, Drosophila
Description: The isolation procedure of Lipophorin (Lpp) particles was adapted from Panakova et al (2005). Briefly, 10 ml feeding third‐instar larvae were first washed with water and then with TNE buffer (100 mM Tris–HCl pH 7.5, 150 mM NaCl, 0.2 mM EGTA, cOmplete™ protease inhibitor cocktail (Roche, #000000011697498001)). All following steps were conducted at 4 °C (unless stated otherwise). Larvae were homogenized in TNE buffer in a tissue grinder with a loose pestle, and the homogenate was centrifuged for 10 min at 1,000 × g and afterwards for 3 h at 142,000 × g. The resulting supernatant (10 ml) was mixed with 40 μl 10 mM PAC‐NAE (EtOH solution) and sonicated for 5 min. […]
(§1) Only ring glands and wing discs that were processed in parallel, imaged using the same microscope settings, and properly mounted were used for quantifications. For quantification of immunohistochemical staining of CD8::GFP in ring glands, the mean pixel intensity of two regions of interest of 25 × 25 μm per ring gland was determined using ROI manager, and the average of these was used for the statistical analysis. For quantification of compartment size, wing disc folds served as morphological landmarks to outline the region of the wing pouch and the D/V boundary. The area of dorsal and ventral compartment was then determined using ROI manager. […] The A/P boundary was determined according to anti‐Ci155 or anti‐Ptc co‐immunostaining. […]

[2] = tested on: Smo-mEos2 localization to the primary cilium in NIH3T3 cells; assay: Smo-mEos2 ciliary localization in NIH3T3/Smo-mEos2 cells (immunofluorescence); type: cell-based; details: Hh ligands not present
Description: NIH3T3/Smo‐mEos2 cells (Kim et al, 2014) (a gift from P. Beachy, SUSM, Stanford, CA, USA) were grown to confluence on coverslips in DMEM (Thermo Fisher Scientific, #31966021) supplemented with 10% FBS (Thermo Fisher Scientific, #10270106), 1% penicillin/streptomycin (Thermo Fisher Scientific, #15140122) and 1% MEM non‐essential amino acids (Thermo Fisher Scientific, #11140050) at 37°C. For SAG, 3‐BP and 2‐DG treatment, cells were then shifted to serum‐deprived medium containing 0.5% FBS instead of 10% FBS and incubated for 24 h with 100 nM SAG (Merck, #566660), 25 mM of 2‐DG (ROTH, #CN96.3) or 15 μM 3‐BP (Sigma‐Aldrich, #16490‐10G), respectively, or without any compound at 37°C. […]
as §1, with “mean grey value” for “A/P boundary”, “measured using ROI manager.” for “determined according to anti‐Ci155 or anti‐Ptc co‐immunostaining.”

[3] = tested on: ATP levels in ubi-AT1.03NL wing discs; assay: Measurement of ATP using FRET-based ATP sensor AT1.03NL in explanted wing discs; type: cell-based, Drosophila; details: explanted wing discs treated with antimycin A for 2 h
Description: Wing discs from up‐crawling third‐instar larvae were dissected within 10 min in Grace's medium supplemented with 5% FBS and 20 nM 20‐hydroxyecdysone (Dye et al, 2017). Dissected wing discs were mounted with their basal side up on glass‐bottom dishes (MatTek Corporation, #P35G‐1.0‐20‐C) with a double‐sided tape spacer and immobilized with a Whatman™ Cyclopore™ track‐etched polycarbonate membrane filter (GE Healthcare Life Sciences, #7062‐2513). Imaging of ubi‐AT1.03NL wing discs was performed on an Olympus IX81 microscope equipped with Yokogawa spinning disk (CSU‐W1, Yokogawa) and Ixon Ultra EMCCD camera (Andor). The sensitized emission method was used to measure FRET. Wing discs were excited with a 445 nm laser twice in a sequential manner. Upon first excitation, emission of mse‐CFP was collected using an HQ 480/40 bandpass filter. Upon second excitation, emission of cpVenus‐FRET was collected using an HQ 542/27 filter. The emission of cpVenus‐FRET has contributions from the energy transfer from mse‐CFP and bleed‐through of mse‐CFP into the HQ 542/27 filter. […]
A custom‐written MATLAB (MathWorks) script was used to estimate the FRET efficiency from the fluorescence images. […]
The FRET efficiency (η) was calculated as, η=IFRET/ID+IFRET […]

[4] = tested on: plasma membrane potential of wing discs; assay: Membrane potential assay with DiBAC4(3) in wing discs; type: cell-based, Drosophila; details: wing discs incubated with 1 μM gramicidin A for 30 min at 29°C
Description: To investigate the plasma membrane potential, we used the membrane potential‐sensitive dye DiBAC4(3) (Thermo Fisher Scientific, #B438). Wing discs from up‐crawling third‐instar larvae were dissected in Grace's medium supplemented with 5% FBS and 20 nM 20‐hydroxyecdysone (full medium) (Dye et al, 2017), and incubated with 500 nM DiBAC4(3) in full medium for 15 min at 29°C. After washing twice with full medium, wing discs were mounted and imaged immediately. A higher fluorescence intensity of DiBAC4(3) indicates depolarization of the plasma membrane. […]
Only ring glands and wing discs that were processed in parallel, imaged using the same microscope settings, and properly mounted were used for quantifications. For quantification of immunohistochemical staining of CD8::GFP in ring glands, the mean pixel intensity of two regions of interest of 25 × 25 μm per ring gland was determined using ROI manager, and the average of these was used for the statistical analysis. For quantification of compartment size, wing disc folds served as morphological landmarks to outline the region of the wing pouch and the D/V boundary. The area of dorsal and ventral compartment was then determined using ROI manager. […] The A/P boundary was determined according to anti‐Ci155 or anti‐Ptc co‐immunostaining. […] The mean grey value was measured using ROI manager. […] The integrated density was measured using ROI manager. […]

C#CCCCC1(CCCCCCCCC(=O)NCCO)N=N1 [PAC-NAE]
PAC-NAE accumulation in wing disc tissue ([1]; knock-down of either ecd or Gapdh in the dorsal compartment, 1.5 μM PAC-NAE labelled Lpp particles): autonomously reduced

O=CC[C@@H](O)[C@H](O)[C@H](O)CO [2-DG, 2‐deoxyglucose]
Smo-mEos2 accumulation in the primary cilium [2]: accumulates in the primary cilium

CCCCCC[C@H]1C(=O)O[C@H](C)[C@H](NC(=O)c2cccc(NC=O)c2O)C(=O)O[C@@H](C)[C@@H]1OC(=O)CC(C)C [antimycin A]
FRET signal of ubi-AT1.03NL (cellular ATP levels) [3]: strongly reduced

gramicidin A
Plasma membrane potential (DiBAC4(3) signal intensity) [4]: dissipate the plasma membrane potential | Uptake of PAC-NAE ([1]; wing discs incubated with 1 μM gramicidin A, compared to control discs): strongly reduces

O=C(O)C(=O)CBr [3-BP, 3‐bromopyruvate]
Smo-mEos2 accumulation in the primary cilium [2]: accumulates in the primary cilium
